Measured values: US20240374879A1, “METHODS AND COMPOSITIONS TO REDUCE CELLULAR DEPOSITION, AND HYDROCEPHALUS SHUNT FAILURE” (Wayne State University, priority 2021, published 2024)

How the values were obtained:
Human astrocyte cells = test: Cell counts of human astrocytes cultured on PDMS discs, GIT 27 as pre-, simultaneous or post-treatment; type: cell-based; conditions: for number of cells compared to associated control: vs control; for % Change of average Cell Counts, GIT 27 vs DMSO treated vehicle: GIT 27 1000 μg/mL
Description: PDMS Catheter Creation: Catheter samples were made by creating a polydimethylsiloxane (PDMS, silicone) solution, Sylgard 184 (Dow Corning), at a ratio of 10:1 elastomer to curing agent. This solution was then homogenized and placed into a degasser to remove bubbles. Once all the air bubbles were removed, 200 μL of the PDMS solution was pipetted into a 24 well plate to create flat disk samples for cell culturing. These samples were then degassed again to ensure were no bubbles in the disks and left for 48 hours to cure on a flat substrate.
Media Creation: A media stock solution was created by combining astrocyte media (ScienCell), supplement kit, 10 mL fetal bovine serum (FBS), 5 mL penicillin/streptomycin, and 5 mL astrocyte growth serum (ScienCell), and an additional 10 mL FBS (ScienCell). IL-1β and IL-10 were diluted to a concentration of 50,000 ng/mL and 100,000 ng/mL, respectively, in phosphate buffer solution (PBS, w/v). GIT 27 was dissolved in a dimethyl sulfoxide (DMSO) vehicle (Sigma-Aldrich) to a concentration of 20 mg/mL (w/v).
Media solutions for the different groups were made directly before each media change. Cytokines IL-1β or IL-10 were added to the media stock solution for a final concentration of 14.67 ng/mL. GIT 27 was added for a concentration of 1000 μg/mL in the media stock solution for our experimental group. […] Our vehicle group contained 50 μL/mL DMSO alone, which is proportional to the amount in the GIT 27 treated group. Concentrations were then made for evaluation of dose and time dependency (FIGS. 6A-6F).
Cell Culture: Human astrocyte cells were initially grown in T75 flasks with media changes every three days using basic astrocyte media and washed with Hanks Balanced Salt Solution without Calcium and Magnesium (Gibco). Once the flasks came to confluency, the cells were trypsinized using Trypsin-EDTA at 0.25% (Gibco) and seeded at a seeding density of 250,000 cells per well. These samples were broken up into three treatment groups: control, DMSO, and GIT 27 tested as a pre-treatment, simultaneous treatment, and post-treatment (FIGS. 6A-6F). Each group and treatment time were then either exposed to IL-1β or IL-10 separately at concentrations described for media creation.
Cell Count Collection: Images were taking using a microscope (Fisher Scientific) and microscope attachable digital camera following each media change on days 1, 5, 7, 9, 12, and 14. These images were taken at approximately the center of each 24 well plate well with an area of 5.9788 mm^2. Counts were obtained using the FIJI software by converting the images to 32-bit. Contrast was enhanced to the value of 0.5 and background was subtracted to a value of 10. Finally, the threshold was set to 23-70 to obtain the cell count of each image.
Statistical Analysis: Three conditions were tested in this experiment, treatment group, treatment time, and IL B or IL10 exposure, with a total of 16 different samples tested with an n=five of replicates. The three treatment groups tested were a control, vehicle control (DMSO), and GIT 27 (G27). Each treatment group was tested as a pre-treatment (denoted Pre-), dose simultaneous to treatment (denoted Sim-), and post-treatment (denoted Post-) as time points with respect to shunt insertion represented by exposure to either IL-1β (IL1B) or IL-10 (IL10). Utilizing the abbreviations described here we combined these to allow for an easier understand of the results presented. An example of this can be control Pre-IL1B, DMSO Pre-IL1B, and G27 Pre-IL1B which represents the three treatment groups when used as a pre-treatment to IL-1β exposure.

[1] = test system: macrophage toll-like receptor (TLR) 4 and TLR 2/6 signaling pathway; conditions: cited from earlier work

O=C(O)CC1CC(c2ccccc2)=NO1 (stereo not drawn) [GIT 27, 4,5-Dihydro-3-phenyl-5-isoxazoleacetic acid]
cell count by treatment time (Human astrocyte cells; G27 Pre-IL1B compared to G27 Post-IL1B): significantly fewer | cell count by treatment time (Human astrocyte cells; G27 Pre-IL1B compared to Sim-IL1B): insignificantly less | cell count by treatment time (Human astrocyte cells; G27 Pre-IL10 compared to G27 Post-IL10): significantly fewer | cell count by treatment time (Human astrocyte cells; G27 Sim-IL10 compared to G27 Post-IL10): significantly lower | number of cells compared to associated control (Human astrocyte cells; Post-IL1B): not significantly different | cell count, difference between the three treatment groups (Human astrocyte cells; Post-IL10): no effect | % Change of average Cell Counts, GIT 27 vs DMSO treated vehicle (Human astrocyte cells; Post-Treatment (C), exposed to IL-1β): 94.25% | % Change of average Cell Counts, GIT 27 vs DMSO treated vehicle (Human astrocyte cells; Post-Treatment (C), exposed to IL-10): −9.74% | cell count compared to DMSO (Human astrocyte cells; Pre-IL1B, vs DMSO Pre-IL1B): insignificantly lower | cell count compared to control (Human astrocyte cells; Pre-IL1B, vs control Pre-IL1B): significantly lower | % Change of average Cell Counts, GIT 27 vs DMSO treated vehicle (Human astrocyte cells; Pre-Treatment (A), exposed to IL-1β): −15.09% | % Change of average Cell Counts, GIT 27 vs DMSO treated vehicle (Human astrocyte cells; Pre-Treatment (A), exposed to IL-10): 22.97% | number of cells compared to associated control (Human astrocyte cells; Sim-IL1B): not significantly different | cell count, difference between the three treatment groups (Human astrocyte cells; Sim-IL10): no effect | % Change of average Cell Counts, GIT 27 vs DMSO treated vehicle (Human astrocyte cells; Simultaneous Treatment (B), exposed to IL-1β): 50.87% | % Change of average Cell Counts, GIT 27 vs DMSO treated vehicle (Human astrocyte cells; Simultaneous Treatment (B), exposed to IL-10): −5.50% | secretion of pro-inflammatory cytokines IL-1β, IL-10 and IFN-γ [1]: reduces | TNF-α secretion ([1]; macrophages): inhibits
